Results as given in publication PMC7880690, “Chemical genetics and proteome-wide site mapping reveal cysteine MARylation by PARP-7 on immune-relevant protein targets” (eLife, 2021).

Key:
PARP3FL = target: T1, PARP3FL (Homo sapiens, UniProt Q9Y6F1); assay: ADP-ribosylation plate assay, PARP3FL
T1 sequence (Q9Y6F1 1-533): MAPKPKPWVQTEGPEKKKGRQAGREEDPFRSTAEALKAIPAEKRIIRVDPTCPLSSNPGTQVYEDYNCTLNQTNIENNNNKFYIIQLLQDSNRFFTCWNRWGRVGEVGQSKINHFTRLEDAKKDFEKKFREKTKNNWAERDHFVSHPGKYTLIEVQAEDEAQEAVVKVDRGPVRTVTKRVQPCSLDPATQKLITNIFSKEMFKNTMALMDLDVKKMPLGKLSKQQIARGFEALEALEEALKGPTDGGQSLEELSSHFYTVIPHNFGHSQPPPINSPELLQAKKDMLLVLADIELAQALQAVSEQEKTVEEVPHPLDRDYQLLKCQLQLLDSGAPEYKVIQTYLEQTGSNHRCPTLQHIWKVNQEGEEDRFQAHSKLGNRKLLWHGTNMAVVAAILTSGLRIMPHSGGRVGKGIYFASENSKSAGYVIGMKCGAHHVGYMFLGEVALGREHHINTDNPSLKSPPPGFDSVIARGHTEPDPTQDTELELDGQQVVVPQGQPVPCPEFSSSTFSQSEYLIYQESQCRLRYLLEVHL

IG-PARP-7 (I631G PARP-7) = target: T2, IG-PARP-7 (I631G PARP-7) (Homo sapiens, UniProt Q7Z3E1, I631G); assay: Labeling by orthogonal NAD+ analogs in HEK 293T lysates expressing GFP-IG-PARP-7 (click with biotin-azide, Streptavidin-HRP); type: biochemical; conditions: HEK 293 T cell lysates, 100 µM NAD+ analog
T2 construct: expressed in transfected cells; host or cells: HEK 293T (lysate)
T2 sequence (Q7Z3E1 whole entry I631G): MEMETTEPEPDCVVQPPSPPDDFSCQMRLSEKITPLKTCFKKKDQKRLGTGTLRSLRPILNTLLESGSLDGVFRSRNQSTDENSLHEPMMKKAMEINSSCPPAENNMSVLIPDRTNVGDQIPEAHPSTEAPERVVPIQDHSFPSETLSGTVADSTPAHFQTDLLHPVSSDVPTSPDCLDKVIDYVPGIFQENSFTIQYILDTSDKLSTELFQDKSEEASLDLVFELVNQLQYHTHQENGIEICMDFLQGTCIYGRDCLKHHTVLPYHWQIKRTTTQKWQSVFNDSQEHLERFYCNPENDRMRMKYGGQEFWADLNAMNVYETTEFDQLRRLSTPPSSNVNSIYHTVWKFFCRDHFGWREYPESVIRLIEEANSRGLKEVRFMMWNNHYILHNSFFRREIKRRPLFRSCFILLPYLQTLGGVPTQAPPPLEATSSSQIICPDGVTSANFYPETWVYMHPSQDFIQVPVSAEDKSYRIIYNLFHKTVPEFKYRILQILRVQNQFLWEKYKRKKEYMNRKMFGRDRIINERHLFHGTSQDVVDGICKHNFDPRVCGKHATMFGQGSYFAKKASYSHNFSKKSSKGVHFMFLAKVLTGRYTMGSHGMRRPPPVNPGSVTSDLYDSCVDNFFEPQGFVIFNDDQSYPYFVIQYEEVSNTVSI
Description: Identifying the protein targets of PARP-7 is a critical first step toward unraveling its function in cells. In previous work we have developed an engineered enzyme—modified substrate strategy for identifying relevant targets of individual PARP family members ([Carter-O'Connell et al., 2014]; [Carter-O'Connell et al., 2016]; [Carter-O'Connell and Cohen, 2015]; [Carter-O'Connell et al., 2018]). This chemical genetic (CG) method uses engineered PARPs and an orthogonal NAD^+ analogue that contains a clickable handle (e.g. an alkyne) that is located at the N-6 position of the adenine ring (5-Bn-6-a-NAD^+). […] Importantly, 5-Bn-6-a-NAD^+ is not used by wild-type (WT) PARPs and in this way is orthogonal to native NAD^+. […] We therefore sought a new orthogonal NAD^+ analogue that would serve as an efficient substrate for floor position engineered PARP-7, I631G PARP-7 (IG-PARP-7) (Figure 1a).
Figure 1. A chemical genetic strategy for identifying the direct MARylation targets of PARP-7. (a) Schematic of chemical genetic approach for identifying direct targets of PARP-7. (b) Crystal structure of human PARP1 bound to the non-hydrolyzable NAD^+ analog benzamide adenine dinucleotide (BAD). PDB: 6bhv. […] Following copper-catalyzed click chemistry with biotin-azide, proteins were resolved by SDS-PAGE and biotinylated proteins were detected by Western blot detection using Streptavidin-HRP. […]

| SMILES | IC50 (PARP3FL) | substrate for floor position engineered PARP-7 (IG-PARP-7) (IG-PARP-7 (I631G PARP-7)) |
| --- | --- | --- |
| N#Cc1ccc(N2CCN(C(=O)c3cc(Cc4n[nH]c(=O)c5ccccc45)ccc3F)CC2)nc1 [Phthal01, 6-(4-(2-fluoro-5-((4-oxo-3,4-dihydrophthalazin-1-yl)methyl)benzoyl)piperazin-1-yl)nicotinonitrile] | 320 ± 2 nM | – |
| C#Cc1nc(N)c2ncn(C3OC(COP(=O)(O)OP(=O)([O-])OCC4OC([n+]5cc(Cc6ccccc6)cc(C(N)=O)c5)C(O)C4O)C(O)C3O)c2n1 (centres unmarked) [5-Bn-2-e-NAD^+, 5-benzyl-2-ethynyl-NAD^+] | – | much better substrate |
